Laboratory results from US11629359B2, “Plasma membrane intrinsic aquaporin for absorbing and transporting neonicotinoid insecticides, and coding gene and use therefor” (JIANGSU ACADEMY OF ARGRICULTURAL SCIENCES, priority 2020, dated 2023).

Key:
Chinese cabbage plants = conditions: 2 mg/L in Hoagland nutrient solution, mercuric chloride and glycerol of different concentrations, 48 h
[1] = tested on: BraPIP2;1 overexpression Arabidopsis thaliana; assay: Thiamethoxam content of BraPIP2;1 transgenic Arabidopsis thaliana plants; type: in vivo; conditions: soil containing 10 mg/L thiamethoxam, 20 days
Description: (§1) The BraPIP2;1 gene cloned in Example 1 was constructed into the plant binary overexpression vector pCAMBIA2301 (purchased from Clotech). By the Agrobacterium tumefaciens-mediated method (Valvekens, D., van Montagu, M., and Lijsebettens, M. V. (1988). Agrobacterium tumefaciens-mediated transformation of Arabidopsis thaliana root explants by using kanamycin selection. Proc. Natl. Acad. Sci. USA 85, 5536-5540.), the inflorescence of wild-type Arabidopsis thaliana Col-0 (purchased from ATCC, USA) was infected with the constructed overexpression vector. Through screening (resistance pure line seedlings were screened on a 1/2MS plate containing 50 μg/mL kanamycin), BraPIP2;1 overexpression Arabidopsis thaliana pure line materials BraPIP2;1#3 and BraPIP2;1#5 were identified and obtained.
In addition, germinated seedlings of the same size were transplanted into soil containing 10 mg/L thiamethoxam, and after 20 days of culture, the root and aboveground samples of the transgenic Arabidopsis thaliana and the control were harvested respectively, washed with deionized water, and weighed.

[2] = tested on: Saccharomyces cerevisiae INVSc1 (pYES2); assay: Thiamethoxam content of control yeast strain; type: cell-based; conditions: 30° C., 6 h
Description: (§2) The BraPIP2;1 gene cloned in Example 1 was constructed into the Saccharomyces cerevisiae overexpression vector pYES2 (purchased from Clotech) referring to (He Lin, Jiang Lili, Wang Yucheng, Analysis of the stress tolerance of Tamarix thioredoxin peroxidase (ThPrx1) gene transformed into yeast, Journal of Northeast Forestry University, 2011, Vol. 39. No. 4, 101-104), and the constructed recombinant plasmid was named pYES2-BraPIP2;1. The pYES2-BraPIP2;1 and an empty vector pYES2 were transformed into Saccharomyces cerevisiae INVSc1 by lithium acetate precipitation. The recombinant yeasts were named INVSc1 (pYES2-BraPIP2;1) and INVSc1 (pYES2), respectively.
(§3) Induction of recombinant strains: Single colonies of the control yeast INvsc1 (pYES2) and the recombinant yeast INvsc1 (pYES2-BraPIP2;1) were picked, inoculated in an SC-U liquid medium (with glucose of a final concentration of 2%) respectively, and incubated at 30° C. for 24 h on a shaker. The OD600 value is measured, and the amount of bacterial solution required is calculated such that the OD600 of bacteria in 10 ml of induction medium (SC-U+2% galactose) is 0.4. Induce expression was carried out at 30° C. for 24 h. The OD600 value was measured again, and the amount of bacterial solution required was calculated. […]

[3] = tested on: Saccharomyces cerevisiae INVSc1 (pYES2-BraPIP2;1); assay: Thiamethoxam content of recombinant yeast strain; type: cell-based; conditions: 30° C., 6 h
Description: as §2, §3

[4] = tested on: BraPIP2;1 overexpression Arabidopsis thaliana; assay: Main root length of BraPIP2;1 transgenic Arabidopsis thaliana under thiamethoxam; type: in vivo; conditions: 1/2MS media with 10 and 50 mg/L thiamethoxam, 20 days
Description: as §1
The pure line seeds of the BraPIP2;1#3 and BraPIP2;1#5 obtained in the previous transgenic experiment and a wild-type Col-0 material (WT) were germinated on a 1/2MS medium respectively, and then transferred to 1/2MS media (Qingdao Hopebio Co., Ltd., Item No. HB8469-12, PH=5.6) containing 10 and 50 mg/L thiamethoxam respectively. After 20 days, the growth of the seedlings was observed and the main root length was measured.

BraPIP2;1 = assay: Response of BraPIP2;1 gene expression to thiamethoxam (quantitative RT-PCR); type: in vivo, Chinese cabbage; conditions: 10 mg/L thiamethoxam, 6 hours and 24 hours, p<0.001
Description: Seedlings of Chinese cabbage with the same growth condition were put in a Hoagland's nutrient solution containing 10 mg/L thiamethoxam (the Hoagland's nutrient solution was purchased from Beijing Coolaber Technology Co., Ltd.), and treated in the Hoagland's nutrient solution for 6 and 24 hours (treatment group).
At the same time, a Hoagland's nutrient solution without thiamethoxam was used as the control group.
Treated root and aboveground tissue RNA of two groups was extracted respectively, the 1st strand cDNA was obtained by reverse transcription as a template, specific expression primers were designed based on the cDNA sequence of BraPIP2;1, the Chinese cabbage Tublin was used as an internal reference, and the expression of the gene transcription level was detected by quantitative RT-PCR.
The quantification instrument is 7500 Real Time PCR System (Applied Biosystem), and a qPCRT system was configured according to the instructions of a kit 2×TSINGKE Master qPCR Mix (Tsingke Biotechnology Co., Ltd.). The PCR program is: pre-denaturation at 95° C. for 10 min, at 95° C. for 15s, and at 60° C. for 20 s, for 40 cycles.

[5] = tested on: Saccharomyces cerevisiae INVSc1 (pYES2-BraPIP2;1); assay: Growth of recombinant yeast strains under thiamethoxam stress; type: cell-based; conditions: thiamethoxam 10-1600 mg/L, stress at 30° C. for 72 h
Description: as §2, §3

`CN1CCCC1c1cccnc1` (stereo not drawn) [nicotine] was tested, and the “content of the compound in the plants after water channel inhibitors were added” value (Chinese cabbage plants) was “did not change significantly”.

`CN1COCN(Cc2cnc(Cl)s2)/C1=N\[N+](=O)[O-]` [thiamethoxam] was tested, and the “thiamethoxam content of the roots and aboveground parts of the transgenic plant versus wild plant” value [1] was “higher than that of the wild plant”, the “thiamethoxam content of the control strain” value ([2]; 10 mg/L thiamethoxam) was 0.0038 ng/OD and the “thiamethoxam content of the control strain” value ([2]; 100 mg/L thiamethoxam) was 0.011 ng/OD. For the same compound, the “thiamethoxam content of the recombinant strain” value ([3]; 10 mg/L thiamethoxam) was 0.0071 ng/OD, the “thiamethoxam content of the recombinant strain” value ([3]; 100 mg/L thiamethoxam) was 0.028 ng/OD and the “main root length of the transgenic strain versus wild type” value [4] was “shorter than that of the wild type”. The “expression abundance of BraPIP2;1 in the roots and aboveground parts compared with the control” value (BraPIP2;1) was “significantly increased” and the “growth of transgenic strain (pYES2-BraPIP2;1) versus wild strain (pYES2) with thiamethoxam” value [5] was “grows significantly weaker than the wild strain”.
